{"source": "patent US11497740B2", "about": "“Use of Jumonji C demethylase inhibitors for the treatment and prevention of chemotherapy resistance and radioresistance in cancer” (THE BOARD OF REGENTS OF THE UNIVERSITY OF TEXAS SYSTEM, priority 2016, dated 2022)", "key": {"H1299 Parental cells": {"test_system": "H1299 Parental cells", "assay": "Microarray gene expression after 24 h treatment, H1299 Parental cells", "type": "cell-based, human", "conditions": "0.2 μM JIB-04 or 1 μM GSK-J4, fold changes ≥1.5, P ≤0.05", "method": "Gene expression profiling was performed using Illumina HumanWG-6 V3 BeadArrays (for NSCLC patient tumors) or Illumina HumanHT-12 V4 BeadArrays (for cell lines and xenografts). Cell line and xenograft microarrays included biological replicates (Cell lines: 5 for parental, 3 for most resistant variant, 2 for each intermediate resistance time-point; Xenografts: 3 tumors each for parental and resistant group). Data were pre-processed using the R package mbcb for background correction (Ding et al., 2008), then log-transformed and quantile-normalized with the R package preprocessCore or using in-house MATRIX software (MicroArrayTRansformation In eXcel). Microarray data can be found under GEO accession GSE77209.\nLog ratios, unpaired t-test p values and color-coded heat maps were obtained using MATRIX. For comparisons involving progressively resistant cell line series, analyses were performed using R package by fitting linear regression model on gene expression data against the log transformed IC50 values as measures of drug response. We fitted beta-uniform mixture model to a set of p-values using the R package ClassComparison. Genes with p-values below the FDR cutoff of 0.1 were considered statistically significant. For xenograft data, differential gene expression analysis was performed by student's t-test. […]"}, "H1355 T16": {"test_system": "H1355 T16", "assay": "MTS cell viability assay, H1355 T16 resistant variant vs H1355 Parental", "type": "cell-based, human", "conditions": "H1355 T16 vs H1355 Parental", "method": "(§1) NSCLC lines were treated with paclitaxel+carboplatin combination, given in a ˜2:3 wt/wt ratio, to mirror the clinical dosage values of ˜225 mg/m2 and ˜330 mg/m2, paclitaxel and carboplatin respectively. Note that considering the molecular weights of the two drugs, this translates to approximately a 1 to 3.4 molar ratio. Drugs were given in cycles, following a drug on/drug off treatment scheme. Each cycle consisted of 4-5 days of drug treatment and drug-free culturing for about 1-2 weeks or more to allow the surviving cells to repopulate the plate. […] Untreated parental cells were simultaneously maintained at all times for comparison. Cell viability was assessed in 96-well plates using standard MTS assays (Promega). Treatment duration in MTS assays was 4 days. Drugs were tested in two- or four-fold serial dilutions, totaling 8 different drug concentrations, with 8 replicates per concentration. Response was validated in multiple replicate plates (n≥3).\n(§2) Cell viability was assessed by standard MTS assays using Promega's CellTiter reagents. Eight drug concentrations given as two- or four-fold dilutions were tested for each chemotherapeutic agent. In addition, each experiment contained eight replicates per concentration and the entire assay was performed in multiple replicates (n≥3)."}, "ABCB1/MDR1": {"test_system": "ABCB1/MDR1", "assay": "qRT-PCR of ABCB1/MDR1 in treated H1299 T18 cells", "type": "cell-based, human", "conditions": "for expression of MDR1: H1299 T18 cells", "excerpt": "Total RNA was isolated using RNeasy Plus Mini kit (Qiagen) and cDNA was generated using iScript cDNA synthesis kit (BioRad). For epigenetic enzymes, transcripts were detected by SYBR Green chemistry in real time quantitative PCR assays using validated primers. TBP and GAPDH were used as endogenous controls. […] For all non-epigenetic transcripts, TaqMan probes (Life Technologies) were utilized in multiplex with GAPDH internal reference gene. Additionally, a reference sample containing pooled RNA from normal human and tumor tissues (Stratagene) was used. PCR reactions were run using the ABI 7300 Real-time PCR System and analyzed with the included software. The comparative CT method was used to compute relative mRNA expression."}, "H1299": {"test_system": "H1299", "assay": "Clonogenic survival with ionizing radiation, H1299", "type": "cell-based, Human", "conditions": "16 nM JIB-04; for radiosensitization (clonogenic survival): drug 4 h before IR, 175 nM GSK-J4", "method": "(§3) Cells were serially diluted to appropriate concentrations and plated into 60-mm dish in triplicate for 4 h. Then cells were treated with the indicated drugs, and irradiated 4 hours later with graded doses of radiation for concurrent treatment or irradiated and 4 hours later the drugs added for post-treatment. All cells were irradiated at room temperature in ambient air using a 137Cs source (Mark 1-68 irradiator, JL Shepherd & Associated). Surviving colonies were stained with crystal violet approximately 10 to 14 days later and colonies formed with more than 50 cells were counted. Clonogenic fraction of irradiated cells was normalized to the plating efficiency of unirradiated controls. The data are presented as the mean±SD. The curve S=e^−(αD+βD2) was fitted to the experimental data using a least square fit algorithm using the program Sigma Plot 11.0 (Systat Software, Inc.)."}, "A549": {"test_system": "A549", "assay": "Clonogenic survival with ionizing radiation, A549", "type": "cell-based, Human", "conditions": "25 nM JIB-04; for radiosensitization (clonogenic survival): drug 4 h before IR", "method": "as §3"}, "H1299 T18": {"test_system": "H1299 T18", "assay": "MTS cell viability assay, H1299 T18 resistant variant vs H1299 Parental", "type": "cell-based, human", "conditions": "H1299 T18 vs H1299 Parental", "method": "as §1, §2"}, "H1299 T18 xenografts": {"test_system": "H1299 T18 xenografts", "conditions": "for final tumor weights vs vehicle: GSK-J4 100 mg/kg 10 days, JIB-04 50 mg/kg; for tumor volume vs vehicle: GSK-J4 100 mg/kg every day 10 days, JIB-04 5, 20 or 50 mg/kg 3x per week 2 weeks by gavage", "method": "(§4) Animals were housed under standard, sterile conditions at UTSW animal facility. All experiments were carried out under approved IACUC protocols and followed UTSW animal care procedures. For tumor growth rate studies and docetaxel+cisplatin drug response comparisons, 6-8 week old female NOD/SCID mice were used. For all subsequent in vivo drug response studies, 6 week old female athymic nude mice were used (Charles River Labs, Jackson Labs). Experimental details are provided in supplemental information.\n(§5) Parental and resistant NSCLC cell lines (1×10^6 cells in PBS or RPMI for H1299; 5×10^6 cells in PBS/matrigel for H1355 and HCC4017) were injected subcutaneously into the right flank of mice. Tumor growth was monitored by caliper measurements and tumor volume was calculated by 0.5×length×width^2). Treatment was started when tumors reached ˜150-200 mm3. Drug/Vehicle therapy was given to tumor volume matched pairs. Docetaxel (3 mg/kg) and cisplatin (3 mg/kg) were given i.p. once a week for 3 weeks. For JIB-04 studies, nude mice were randomized to receive either of 5, 20 or 50 mg/kg doses or vehicle, 3× per week for 2 weeks by gavage in 12.5% cremophor EL, 12.5% DMSO, aqueous suspension."}, "[1]": {"test_system": "H1299 Parental xenografts", "conditions": "for final tumor burden (tumor weights) of combination / tumor growth inhibition of combination: combination with paclitaxel+carboplatin chemotherapy", "method": "as §4, §5"}, "[2]": {"conditions": "SR = [IC50 of Parental]/[IC50 of Resistant]"}, "[3]": {"conditions": "from non-linear regression/exponential growth curves"}}}
{"smiles": "CCOC(=O)CCNc1cc(N2CCc3ccccc3CC2)nc(-c2ccccn2)n1", "note": "[GSK-J4]", "values": [{"measurement": "gene expression changes (total probes)", "setting": "H1299 Parental cells", "value": 224, "unit": "probes"}, {"measurement": "sensitivity of resistant variant compared to parental cells", "setting": "H1355 T16", "value": "higher sensitivity"}, {"measurement": "expression of MDR1", "setting": "ABCB1/MDR1", "value": "not altered"}, {"measurement": "radiosensitization (clonogenic survival)", "setting": "H1299", "value": "failed to radiosensitize"}, {"measurement": "radiosensitization (clonogenic survival)", "setting": "A549", "value": "failed to radiosensitize"}, {"measurement": "sensitivity of resistant variant compared to parental cells", "setting": "H1299 T18", "value": "higher sensitivity"}, {"measurement": "final tumor weights vs vehicle", "setting": "H1299 T18 xenografts", "value": "significant decrease in final tumor weights"}, {"measurement": "tumor volume vs vehicle", "setting": "H1299 T18 xenografts", "value": "significant reduction in average tumor volume"}, {"measurement": "% γH2AX+ cells in tumors (IHC)", "setting": "H1299 T18 xenografts; mouse, in vivo", "value": "increased the % γH2AX+ cells"}, {"measurement": "cleaved caspase 3 staining in tumors (IHC)", "setting": "H1299 T18 xenografts; mouse, in vivo", "value": "focally increased cleaved caspase 3 staining"}, {"measurement": "final tumor weights vs vehicle", "setting": "[1]; GSK-J4 100 mg/kg 10 days", "value": "no significant drug-induced decrease"}, {"measurement": "final tumor burden (tumor weights) of combination", "setting": "[1]", "value": "significant reduction in final tumor burden compared to either therapy alone"}, {"measurement": "tumor growth inhibition of combination", "setting": "[1]", "value": "significantly greater tumor growth inhibition than single agents"}]}
{"smiles": "Clc1ccc(N/N=C(\\c2ccccc2)c2ccccn2)nc1", "note": "[JIB-04]", "values": [{"measurement": "gene expression changes (total probes)", "setting": "H1299 Parental cells", "value": 519, "unit": "probes"}, {"measurement": "sensitivity of resistant variant compared to parental cells", "setting": "H1355 T16", "value": "higher sensitivity"}, {"measurement": "H1355 T16 SR (Selectivity Ratio)", "setting": "H1355 T16; [2]", "value": 2.8}, {"measurement": "expression of MDR1", "setting": "ABCB1/MDR1", "value": "not altered"}, {"measurement": "decrease in ABCB1/MDR1 mRNA expression", "setting": "ABCB1/MDR1; high dose JIB-04 (10×-20×IC50), 24-48 h treatment", "value": "10-20%"}, {"measurement": "decrease in ABCB1/MDR1 mRNA expression", "setting": "ABCB1/MDR1; low dose JIB-04 (1×IC50), 1 wk treatment", "value": "10-20%"}, {"measurement": "radiosensitization, JIB-04 before IR vs 4 h post-irradiation", "setting": "H1299", "value": "significantly more robust when administering JIB-04 first"}, {"measurement": "radiosensitization (clonogenic survival)", "setting": "H1299", "value": "had a radiosensitization/radioenhancement effect"}, {"measurement": "radiosensitization, JIB-04 before IR vs 4 h post-irradiation", "setting": "A549", "value": "significantly more robust when administering JIB-04 first"}, {"measurement": "radiosensitization (clonogenic survival)", "setting": "A549", "value": "had a radiosensitization/radioenhancement effect"}, {"measurement": "sensitivity of resistant variant compared to parental cells", "setting": "H1299 T18", "value": "several-fold hyper-sensitized"}, {"measurement": "H1299 T18 SR (Selectivity Ratio)", "setting": "H1299 T18; [2]", "value": 20.3}, {"measurement": "final tumor weights vs vehicle", "setting": "H1299 T18 xenografts", "value": "significant decrease in final tumor weights"}, {"measurement": "tumor volume vs vehicle", "setting": "H1299 T18 xenografts", "value": "greater percent reduction in final tumor volumes"}, {"measurement": "increase in tumor doubling time", "setting": "H1299 T18 xenografts; [3]", "value": 69, "unit": "%"}, {"measurement": "% Ki67+ cells in tumors (IHC)", "setting": "H1299 T18 xenografts; mouse, in vivo", "value": "reduction of % Ki67+ cells"}, {"measurement": "cleaved caspase 3 staining in tumors (IHC)", "setting": "H1299 T18 xenografts; mouse, in vivo", "value": "focally increased cleaved caspase 3 staining"}, {"measurement": "tumor volume vs vehicle", "setting": "[1]; GSK-J4 100 mg/kg every day 10 days, JIB-04 5, 20 or 50 mg/kg 3x per week 2 weeks by gavage", "value": "significantly reduced tumor burden"}, {"measurement": "final tumor burden (tumor weights) of combination", "setting": "[1]", "value": "significant reduction in final tumor burden compared to either therapy alone"}, {"measurement": "tumor growth inhibition of combination", "setting": "[1]", "value": "significantly greater tumor growth inhibition than single agents"}, {"measurement": "change in tumor doubling time", "setting": "[1]; [3]", "value": "< 25", "unit": "%"}]}
